# Data as given in US9481648B2, “Kinase inhibitors” (Respivert Limited, priority 2013, dated 2016).
# Key:
# [1] = Human hepatocyte stability test; type: in vitro ADME; settings: human hepatocytes; for hepatocyte CLint: read-out: Mean intrinsic clearance
# Method: Assessment of certain in vitro ADME (absorption, distribution, metabolism, and excretion) parameters for certain compounds of the invention was conducted by BioFocus (Saffron Walden, UK).
# [2] = system: adoptive transfer (CD45RBhigh cells) colitis in SCID mice; assay: Adoptive transfer in mice (in vivo v); parameters: species or system mouse; settings: for activity in T cell driven in vivo model of colonic inflammation (relative ratios of colon weight to length) / Colon weight:length / levels of pro-inflammatory cytokines in samples of colon tissue / IFNγ level in colon tissue / IL-8 level in colon tissue: adoptive transfer mouse model; for % Inhibition (of the induction window between naïve and vehicle animals): colon weight:length
# Method: On Study day 0, female Balb/C mice are terminated and spleens obtained for CD45RB^high cell isolation (Using SCID IBD cell Separation protocol). Approximately 4×10^5 cells/mL CD45RB^high cells are then injected intraperitoneally (100 μL/mouse) into female SCID animals. On study day 14, mice are weighed and randomized into treatment groups based on body weight. On Day 14, compounds are administered BID, via oral gavage, in a peanut oil vehicle at the dose levels outlined below in Tables 6a and 6b and a dose volume of 5 mL/kg. Treatment continues until study day 42, at which point the animals are necropsied 4 hours after the morning administration. The colon length and weight are recorded and used as a secondary endpoint in the study as a measurement of colon oedema. The colon is then divided into six cross-sections, four of which are used for histopathology scoring (primary endpoint) and two are homogenised for cytokine analysis. Data shown is the % inhibition of the induction window between naïve animals and vehicle animals, where higher inhibition implies closer to the non-diseased, naïve, phenotype.
# Syk = Syk (Homo sapiens (Human), UniProt P43405); assay: KINOMEscan enzyme binding assay (dissociation constant)
# Method: (§1) Kinase enzyme binding activities of compounds disclosed herein may be determined using a proprietary assay which measures active site-directed competition binding to an immobilized ligand (Fabian, M. A. et al., Nature Biotechnol., 2005, 23:329-336). These assays may be conducted by DiscoverX (formerly Ambit; San Diego, Calif.). The percentage inhibition produced by incubation with a test compound may be calculated relative to the non-inhibited control.
# p38 MAPKα = p38 MAPKα (Homo sapiens (Human), UniProt Q16539); assay: as above
# Method: as §1
# Lck = Lck (Homo sapiens (Human), UniProt P06239); assay: as above
# Method: as §1
# hERG channel = hERG channel (Homo sapiens (Human), UniProt Q12809); assay: hERG inhibition (IonWorks patch clamp electrophysiology); type: cell-based; settings: human, 3 μM
# Method: (§2) Compounds of the invention were tested for inhibition of the human ether a go-go (hERG) channel using IonWorks™ patch clamp electrophysiology at Essen Bioscience (Welwyn Garden City, England).
# [3] = molecular target: human ether a go-go (hERG) channel (Homo sapiens (Human), UniProt Q12809); assay: as above; type: cell-based; settings: IonWorks patch clamp
# Method: as §2
# p38 MAPKα (MAPK14) = p38 MAPKα (MAPK14) (Homo sapiens (Human), UniProt Q16539); assay: p38 MAPKα enzyme inhibition (FRET, Z-LYTE; Method 2); type: biochemical
# [4] = system: Salmonella typhimurium strain TA98; assay: Mutagenicity assessment (bacterial reverse mutation screen); type: cell-based; settings: strain TA98, presence or absence of S-9 mix, up to 1000 μg/plate analysable
# Method: (§3) Studies were conducted by Sequani (Ledbury, Herefordshire, UK) to assess compounds of the invention for their ability to induce mutations in two histidine dependent auxotrophic mutants of Salmonella typhimurium, strains TA98 and TA100 in vitro.
# (§4) The mutation screen was conducted using the plate incorporation method and was performed in both the presence and absence of S-9 mix (a liver post-mitochondrial fraction derived from the livers of Aroclor 1254 treated rats). The bacteria were exposed to test compounds dissolved in dimethylsulphoxide, which solvent was also used as the negative control. The dose levels used were 0.32, 1.6, 8, 40, 200, 1000 or 5000 μg/plate.
# (§5) Precipitation was also noted in both strains at 1000 μg/plate in the presence and absence of S-9 mix.
# [5] = system: Salmonella typhimurium strain TA100; assay: as above; type: cell-based; settings: strain TA100, presence or absence of S-9 mix, up to 1000 μg/plate analysable
# Method: as §3, §4, §5
# [6] = system: endotoxin (LPS)-induced uveitis in Lewis rats; assay: Endotoxin-induced uveitis in rats (in vivo vi); parameters: species or system rat; settings: for IL-1β Anterior / IL-1β Posterior / IL-6 Anterior / IL-6 Posterior / MCP-1 Anterior / MCP-1 Posterior: eyes of LPS-stimulated rats, 1 mg/mL; for cytokine levels in both the anterior and posterior segments of the eyes: rats treated with intravitreal endotoxin LPS, topical dosing
# Method: Male, Lewis rats (6-8 weeks old, Charles River UK Limited) are housed in cages of 3 at 19-21° C. with a 12 h light/dark cycle (07:00/19:00) and fed a standard diet of rodent chow and water ad libitum. Non-fasted rats are weighed, individually identified on the tail with a permanent marker, and receive a single intravitreal administration into the right vitreous humor (5 μL dose volume) of 100 ng/animal of LPS (Escherichia coli 0111:B4 prepared in PBS, Sigma Aldrich, UK) using a 32-gauge needle. Untreated rats are injected with PBS. […] Following euthanasia, the right eye of each animal is enucleated and dissected into front (anterior) and back (posterior) sections around the lens. Each section is weighed and homogenised in 500 μL of sterile phosphate buffered saline followed by 20 minutes centrifugation at 12000 rpm at 4° C.
# Chain of human ether a go-go (hERG) channel (Q12809 whole entry): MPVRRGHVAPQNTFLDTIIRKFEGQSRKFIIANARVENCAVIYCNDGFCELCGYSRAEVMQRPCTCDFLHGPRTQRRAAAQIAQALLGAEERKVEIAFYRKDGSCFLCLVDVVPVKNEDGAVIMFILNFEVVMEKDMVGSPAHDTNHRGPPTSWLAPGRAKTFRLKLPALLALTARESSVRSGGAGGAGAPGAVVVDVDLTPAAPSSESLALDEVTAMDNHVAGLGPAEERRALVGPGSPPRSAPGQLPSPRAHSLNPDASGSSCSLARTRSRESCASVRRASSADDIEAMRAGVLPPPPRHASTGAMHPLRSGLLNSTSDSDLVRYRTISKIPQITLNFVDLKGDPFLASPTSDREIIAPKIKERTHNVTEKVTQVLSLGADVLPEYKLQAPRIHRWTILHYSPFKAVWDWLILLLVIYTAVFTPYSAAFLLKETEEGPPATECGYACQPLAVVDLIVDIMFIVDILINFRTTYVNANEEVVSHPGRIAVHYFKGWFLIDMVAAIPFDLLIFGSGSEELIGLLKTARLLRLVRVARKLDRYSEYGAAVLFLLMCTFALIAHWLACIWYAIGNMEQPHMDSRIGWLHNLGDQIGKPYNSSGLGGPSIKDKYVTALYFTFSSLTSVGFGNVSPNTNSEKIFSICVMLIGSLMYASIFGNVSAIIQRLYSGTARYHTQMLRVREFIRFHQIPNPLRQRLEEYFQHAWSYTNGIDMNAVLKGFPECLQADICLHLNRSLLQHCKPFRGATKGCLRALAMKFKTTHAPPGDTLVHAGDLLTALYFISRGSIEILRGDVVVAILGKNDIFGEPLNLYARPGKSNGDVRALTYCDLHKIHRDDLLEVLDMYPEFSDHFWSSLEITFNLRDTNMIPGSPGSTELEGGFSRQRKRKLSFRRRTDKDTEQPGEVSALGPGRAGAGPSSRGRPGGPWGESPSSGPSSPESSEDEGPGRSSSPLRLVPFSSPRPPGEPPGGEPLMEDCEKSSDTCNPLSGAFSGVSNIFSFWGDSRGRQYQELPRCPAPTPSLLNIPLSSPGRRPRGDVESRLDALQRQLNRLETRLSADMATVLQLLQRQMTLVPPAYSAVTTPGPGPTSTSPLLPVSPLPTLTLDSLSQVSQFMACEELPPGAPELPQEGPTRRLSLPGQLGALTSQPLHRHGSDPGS
# Chain of hERG channel (Q12809 whole entry): as above
# Chain of Lck (P06239 whole entry): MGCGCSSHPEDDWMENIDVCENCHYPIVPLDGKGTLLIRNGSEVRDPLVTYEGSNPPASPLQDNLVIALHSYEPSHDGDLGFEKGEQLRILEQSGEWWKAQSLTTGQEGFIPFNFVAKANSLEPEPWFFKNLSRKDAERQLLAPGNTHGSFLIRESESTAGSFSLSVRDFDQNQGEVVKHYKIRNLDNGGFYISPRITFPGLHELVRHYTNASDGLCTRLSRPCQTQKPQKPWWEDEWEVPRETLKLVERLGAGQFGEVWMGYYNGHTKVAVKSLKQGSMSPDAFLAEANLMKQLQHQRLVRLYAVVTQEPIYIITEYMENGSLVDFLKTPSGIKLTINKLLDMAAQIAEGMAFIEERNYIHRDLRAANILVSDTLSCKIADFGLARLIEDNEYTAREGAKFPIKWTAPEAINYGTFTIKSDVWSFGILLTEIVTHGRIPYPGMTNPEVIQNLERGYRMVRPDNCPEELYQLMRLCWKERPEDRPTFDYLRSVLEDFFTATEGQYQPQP
# Chain of p38 MAPKα (MAPK14) (Q16539 whole entry): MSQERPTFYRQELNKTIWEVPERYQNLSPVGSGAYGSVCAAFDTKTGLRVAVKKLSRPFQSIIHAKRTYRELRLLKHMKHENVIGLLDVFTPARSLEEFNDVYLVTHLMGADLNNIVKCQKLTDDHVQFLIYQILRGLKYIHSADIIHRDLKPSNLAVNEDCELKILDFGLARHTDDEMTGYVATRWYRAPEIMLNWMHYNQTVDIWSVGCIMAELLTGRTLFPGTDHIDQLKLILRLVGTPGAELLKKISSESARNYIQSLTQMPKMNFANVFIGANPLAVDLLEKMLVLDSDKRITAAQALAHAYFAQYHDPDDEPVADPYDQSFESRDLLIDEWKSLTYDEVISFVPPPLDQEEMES
# Chain of p38 MAPKα (Q16539 whole entry): as above
SMILES,half-life [1],hepatocyte CLint [1],activity in T cell driven in vivo model of colonic inflammation (relative ratios of colon weight to length) [2],Colon weight:length ([2]; 3 mg/kg BID oral),Kd (Syk),Kd (p38 MAPKα),Kd (Lck),inhibition at 3 µM (hERG channel),IC50 [3],IC50 (p38 MAPKα (MAPK14)),levels of pro-inflammatory cytokines in samples of colon tissue [2],increases in revertant colonies [4],increases in revertant colonies [5],IL-1β Anterior ([6]; Table 7b),IL-1β Posterior ([6]; Table 7b),IL-6 Anterior ([6]; Table 7b),IL-6 Posterior ([6]; Table 7b),MCP-1 Anterior ([6]; Table 7b),MCP-1 Posterior ([6]; Table 7b),cytokine levels in both the anterior and posterior segments of the eyes [6],other results
"COCCOCCOCCNC(=O)c1cc(Nc2cc(Oc3ccc(NC(=O)Nc4cc(C(C)(C)C)cc(NS(C)(=O)=O)c4OC)c4ccccc34)ccn2)cc(OC)c1 [Example 3, 3-((4-((4-(3-(5-(tert-Butyl)-2-methoxy-3-(methylsulfonamido)phenyl)ureido)naphthalen-1-yl)oxy)pyridin-2-yl)amino)-5-methoxy-N-(2-(2-(2-methoxyethoxy)ethoxy)ethyl)benzamide]",36 min,39 µL/min/1e6 cells,significant activity,0.039 ± 0.003,10 nM,6.9 nM,2.3 nM,-2 ± 2%,> 3000 nM,87 nM,–,–,–,–,–,–,–,–,–,–,–
C#Cc1cc(Nc2nccc(Oc3ccc(NC(=O)Nc4cc(C(C)(C)C)cc(NS(C)(=O)=O)c4OC)c4ccccc34)n2)cc(C(=O)NCCOCCOCCOC)c1 [Example 16],–,–,significant activity,–,–,–,–,–,–,–,significantly reduced,no dose-related or statistically significant increases,no dose-related or statistically significant increases,–,–,–,–,–,–,–,–
COc1cc(Nc2cc(Oc3ccc(NC(=O)Nc4cc(C(C)(C)C)cc(NS(C)(=O)=O)c4OC)c4ccccc34)ccn2)cc(C(=O)NCCN2CCOCC2)c1 [Example 27],96 min,15 µL/min/1e6 cells,–,0.034 ± 0.003,27 nM,29 nM,4.3 nM,-3 ± 5%,> 3000 nM,41 nM,significantly reduced,no dose-related or statistically significant increases,no dose-related or statistically significant increases,640 ± 263 pg/mL,394 ± 115 pg/mL,519 ± 196 pg/mL,424 ± 116 pg/mL,282 ± 109 pg/mL,352 ± 109 pg/mL,significantly reduced,Colon weight:length ([2]; 3 mg/kg BID oral gavage): 0.022 ± 0.002; % Inhibition (of the induction window between naïve and vehicle animals) ([2]; 3 mg/kg BID oral gavage): 99%; IFNγ level in colon tissue ([2]; 3 mg/kg): 19.1 ± 6.5 pg/mL; IL-8 level in colon tissue ([2]; 3 mg/kg): 131.1 ± 56.1 pg/mL; Colon weight:length ([2]; 0.03 mg/kg BID oral): 0.047 ± 0.005; Colon weight:length ([2]; 0.3 mg/kg BID oral): 0.038 ± 0.004
"COCCOCCOCCOc1cc(Nc2nccc(Oc3ccc(NC(=O)Nc4cc(C(C)(C)C)cc(NS(C)(=O)=O)c4OC)c4ccccc34)n2)cc(OC)c1 [Example 4, N-(5-(tert-Butyl)-2-methoxy-3-(3-(4-((2-((3-methoxy-5-(2-(2-(2-methoxyethoxy)ethoxy)-ethoxy)phenyl)amino)pyrimidin-4-yl)oxy)naphthalen-1-yl)ureido)phenyl)methanesulfonamide]",48 min,29 µL/min/1e6 cells,–,–,14 nM,19 nM,3 nM,-4 ± 2%,> 3000 nM,91 nM,significantly reduced,no dose-related or statistically significant increases,no dose-related or statistically significant increases,–,–,–,–,–,–,significantly reduced,Colon weight:length ([2]; 0.3 mg/kg BID oral gavage): 0.030 ± 0.008; % Inhibition (of the induction window between naïve and vehicle animals) ([2]; 0.3 mg/kg BID oral gavage): 62%; Colon weight:length ([2]; 1 mg/kg BID oral gavage): 0.020 ± 0.002; % Inhibition (of the induction window between naïve and vehicle animals) ([2]; 1 mg/kg BID oral gavage): 110%; IFNγ level in colon tissue ([2]; 1 mg/kg): 2.8 ± 0.8 pg/mL; IL-8 level in colon tissue ([2]; 1 mg/kg): 53.3 ± 23.0 pg/mL; IL-1β Anterior ([6]; Table 7a): 20.3 ± 18.9 pg/mL; IL-1β Posterior ([6]; Table 7a): 7.6 ± 7.6 pg/mL; IL-6 Anterior ([6]; Table 7a): 642.3 ± 48.9 pg/mL; IL-6 Posterior ([6]; Table 7a): 897.9 ± 120.3 pg/mL; MCP-1 Anterior ([6]; Table 7a): 0 ± 0 pg/mL; MCP-1 Posterior ([6]; Table 7a): 1.0 ± 1.0 pg/mL
"COc1c(NC(=O)Nc2ccc(Oc3ccnc(Nc4ccccc4)c3)c3ccccc23)cc(C(C)(C)C)cc1C(=O)NC1COC1 [Example 75, 5-(tert-Butyl)-2-methoxy-N-(oxetan-3-yl)-3-(3-(4-((2-(phenylamino)pyridin-4-yl)oxy)-naphthalen-1-yl)ureido)benzamide]",> 200 min,< 7 µL/min/1e6 cells,–,–,8.8 nM,14 nM,2.5 nM,0%,> 3000 nM,123 nM,–,no dose-related or statistically significant increases,no dose-related or statistically significant increases,570 ± 146 pg/mL,414 ± 97 pg/mL,393 ± 118 pg/mL,489 ± 119 pg/mL,239 ± 82 pg/mL,279 ± 83 pg/mL,significantly reduced,–
